What was measured:
[1] = target: T1, Somatostatin receptor type 2 (Homo sapiens, UniProt P30874); experiment: Agonist activity at human SST2 expressed in CHO-K1 cells assessed as reduction in NKH477-induced intracellular cAMP accumulation; type: functional, cell-based
[2] = target: Voltage-gated inwardly rectifying potassium channel KCNH2 (Homo sapiens, UniProt Q12809); experiment: Inhibition of human ERG expressed in HEK293 cells; type: cell-based
Cytochrome P450 2D6 = Cytochrome P450 2D6 (Homo sapiens, UniProt P10635); experiment: Inhibition of CYP2D6 (unknown origin); type: ADME
[3] = target: Somatostatin receptor type 5 (Homo sapiens, UniProt P35346); experiment: Agonist activity at SST5 (unknown origin)
Cytochrome P450 2C19 = Cytochrome P450 2C19 (Homo sapiens, UniProt P33261); experiment: Inhibition of CYP2C19 (unknown origin); type: ADME
Cytochrome P450 2C9 = Cytochrome P450 2C9 (Homo sapiens, UniProt P11712); experiment: Inhibition of CYP2C9 (unknown origin); type: ADME
[4] = target: Somatostatin receptor type 3 (Homo sapiens, UniProt P32745); experiment: Agonist activity at SST3 (unknown origin)
Cytochrome P450 3A4 [5] = target: T2, Cytochrome P450 3A4 (Homo sapiens, UniProt P08684); experiment: Inhibition of CYP3A4 (unknown origin) at 10 uM; type: ADME
[6] = target: Somatostatin receptor type 1 (Homo sapiens, UniProt P30872); experiment: Agonist activity at SST1 (unknown origin)
[7] = target: Somatostatin receptor type 4 (Homo sapiens, UniProt P31391); experiment: Agonist activity at SST4 (unknown origin)
[8] = target: T1, Somatostatin receptor type 2; experiment: Agonist activity at SST2 (unknown origin)
Cytochrome P450 3A4 [9] = target: T2, Cytochrome P450 3A4; experiment: Inhibition of CYP3A4 (unknown origin); type: ADME
[10] = target: Somatostatin receptor type 2 (Rattus norvegicus, UniProt P30680); experiment: Agonist activity at rat SST2
[11] = Oral bioavailability in Sprague-Dawley rat at 10 mg/kg; type: ADME, organism-based; conditions: in vivo

T1 sequence (P30874 whole entry): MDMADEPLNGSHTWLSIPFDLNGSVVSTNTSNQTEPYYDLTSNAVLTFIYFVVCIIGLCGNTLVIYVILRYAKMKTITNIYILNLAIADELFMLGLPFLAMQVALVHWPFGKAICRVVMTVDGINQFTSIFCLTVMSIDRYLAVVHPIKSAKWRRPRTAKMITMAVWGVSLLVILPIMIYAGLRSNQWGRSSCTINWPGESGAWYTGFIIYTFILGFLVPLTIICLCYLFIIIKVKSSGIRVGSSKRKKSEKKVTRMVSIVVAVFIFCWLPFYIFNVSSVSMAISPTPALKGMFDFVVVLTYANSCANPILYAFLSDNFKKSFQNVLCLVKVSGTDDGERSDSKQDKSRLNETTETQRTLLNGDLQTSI
Chain of Somatostatin receptor type 1 (P30872 whole entry): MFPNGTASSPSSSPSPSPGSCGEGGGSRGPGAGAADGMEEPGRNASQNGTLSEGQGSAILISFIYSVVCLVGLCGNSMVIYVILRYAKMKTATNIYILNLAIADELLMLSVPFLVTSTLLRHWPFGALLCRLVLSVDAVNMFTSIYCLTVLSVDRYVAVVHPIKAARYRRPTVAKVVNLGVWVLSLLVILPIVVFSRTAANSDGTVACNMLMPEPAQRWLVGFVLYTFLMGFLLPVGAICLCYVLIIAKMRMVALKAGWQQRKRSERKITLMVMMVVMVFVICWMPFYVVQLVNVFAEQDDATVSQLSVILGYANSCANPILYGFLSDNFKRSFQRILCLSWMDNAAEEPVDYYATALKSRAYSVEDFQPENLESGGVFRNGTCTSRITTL
Chain of Somatostatin receptor type 3 (P32745 whole entry): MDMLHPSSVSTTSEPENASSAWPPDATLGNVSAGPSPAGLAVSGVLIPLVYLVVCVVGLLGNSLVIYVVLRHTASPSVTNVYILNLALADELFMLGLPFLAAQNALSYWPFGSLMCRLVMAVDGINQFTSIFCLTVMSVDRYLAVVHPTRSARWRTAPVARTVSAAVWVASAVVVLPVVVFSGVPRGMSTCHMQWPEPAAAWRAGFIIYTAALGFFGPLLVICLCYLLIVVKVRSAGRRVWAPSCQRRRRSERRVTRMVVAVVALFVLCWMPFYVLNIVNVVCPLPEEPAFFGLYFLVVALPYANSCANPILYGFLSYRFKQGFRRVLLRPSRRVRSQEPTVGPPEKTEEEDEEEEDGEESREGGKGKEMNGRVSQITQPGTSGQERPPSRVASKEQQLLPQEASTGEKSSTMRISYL
Chain of Somatostatin receptor type 4 (P31391 whole entry): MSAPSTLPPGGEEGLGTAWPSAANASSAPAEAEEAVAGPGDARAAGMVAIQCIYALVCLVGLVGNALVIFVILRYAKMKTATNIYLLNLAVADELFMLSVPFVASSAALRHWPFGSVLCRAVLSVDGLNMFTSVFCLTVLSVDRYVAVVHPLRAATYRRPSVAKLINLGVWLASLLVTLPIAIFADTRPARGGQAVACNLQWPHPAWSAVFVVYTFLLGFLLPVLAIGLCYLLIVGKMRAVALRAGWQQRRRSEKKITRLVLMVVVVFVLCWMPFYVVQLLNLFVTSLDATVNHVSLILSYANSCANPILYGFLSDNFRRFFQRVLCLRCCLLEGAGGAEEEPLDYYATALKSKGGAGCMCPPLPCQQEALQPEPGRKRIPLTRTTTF
Chain of Somatostatin receptor type 5 (P35346 whole entry): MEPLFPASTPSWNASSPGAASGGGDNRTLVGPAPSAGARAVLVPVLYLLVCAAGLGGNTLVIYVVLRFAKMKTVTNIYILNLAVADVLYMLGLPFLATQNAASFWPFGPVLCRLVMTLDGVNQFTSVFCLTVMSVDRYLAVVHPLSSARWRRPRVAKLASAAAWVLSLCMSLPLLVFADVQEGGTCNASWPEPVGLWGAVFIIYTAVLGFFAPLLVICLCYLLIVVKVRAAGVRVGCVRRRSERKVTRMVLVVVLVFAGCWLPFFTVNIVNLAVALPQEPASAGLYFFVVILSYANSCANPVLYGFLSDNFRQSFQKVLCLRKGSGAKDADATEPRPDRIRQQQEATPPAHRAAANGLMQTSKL
Chain of Voltage-gated inwardly rectifying potassium channel KCNH2 (Q12809 whole entry): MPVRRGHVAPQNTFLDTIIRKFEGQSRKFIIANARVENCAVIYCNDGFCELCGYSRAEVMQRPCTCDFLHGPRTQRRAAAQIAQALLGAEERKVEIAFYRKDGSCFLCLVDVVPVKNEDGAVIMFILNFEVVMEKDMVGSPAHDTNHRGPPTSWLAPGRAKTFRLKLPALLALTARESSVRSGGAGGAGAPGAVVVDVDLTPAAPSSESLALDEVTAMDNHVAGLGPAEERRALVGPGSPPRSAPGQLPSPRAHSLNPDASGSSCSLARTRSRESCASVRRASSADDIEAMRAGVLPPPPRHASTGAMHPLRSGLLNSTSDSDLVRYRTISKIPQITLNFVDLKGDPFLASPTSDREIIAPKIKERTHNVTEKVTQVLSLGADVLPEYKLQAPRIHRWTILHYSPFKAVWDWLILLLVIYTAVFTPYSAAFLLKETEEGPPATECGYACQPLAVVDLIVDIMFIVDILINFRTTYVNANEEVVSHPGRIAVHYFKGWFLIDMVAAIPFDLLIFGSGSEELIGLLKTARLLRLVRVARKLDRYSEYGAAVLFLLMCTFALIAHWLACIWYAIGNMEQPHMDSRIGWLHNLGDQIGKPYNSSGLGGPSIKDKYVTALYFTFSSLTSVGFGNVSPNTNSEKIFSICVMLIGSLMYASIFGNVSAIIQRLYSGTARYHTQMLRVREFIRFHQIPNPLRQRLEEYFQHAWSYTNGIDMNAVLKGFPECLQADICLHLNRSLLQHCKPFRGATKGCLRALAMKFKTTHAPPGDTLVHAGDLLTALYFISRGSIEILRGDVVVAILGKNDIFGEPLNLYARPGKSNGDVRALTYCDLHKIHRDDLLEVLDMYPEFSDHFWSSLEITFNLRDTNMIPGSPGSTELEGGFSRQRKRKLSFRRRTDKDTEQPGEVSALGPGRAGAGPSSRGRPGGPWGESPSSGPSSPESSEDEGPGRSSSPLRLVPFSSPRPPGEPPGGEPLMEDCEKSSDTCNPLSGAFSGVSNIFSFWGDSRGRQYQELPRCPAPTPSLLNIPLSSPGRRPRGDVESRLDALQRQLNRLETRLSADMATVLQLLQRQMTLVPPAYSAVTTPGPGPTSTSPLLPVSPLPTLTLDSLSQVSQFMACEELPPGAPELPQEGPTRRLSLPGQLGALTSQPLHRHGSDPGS
T2 sequence (P08684 whole entry): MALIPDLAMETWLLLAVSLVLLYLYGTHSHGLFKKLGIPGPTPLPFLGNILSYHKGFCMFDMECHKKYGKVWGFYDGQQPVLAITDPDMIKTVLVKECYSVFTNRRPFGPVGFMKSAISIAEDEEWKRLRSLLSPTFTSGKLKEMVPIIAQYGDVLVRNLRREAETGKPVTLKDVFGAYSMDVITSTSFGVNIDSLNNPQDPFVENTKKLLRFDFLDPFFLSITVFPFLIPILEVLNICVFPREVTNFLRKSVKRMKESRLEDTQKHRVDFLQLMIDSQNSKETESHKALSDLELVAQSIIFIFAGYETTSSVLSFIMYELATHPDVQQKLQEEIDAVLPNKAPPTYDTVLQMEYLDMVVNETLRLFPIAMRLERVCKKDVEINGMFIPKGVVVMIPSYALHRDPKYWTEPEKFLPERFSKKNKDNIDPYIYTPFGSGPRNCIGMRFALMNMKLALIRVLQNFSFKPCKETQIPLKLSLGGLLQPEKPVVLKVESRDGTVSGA
Chain of Cytochrome P450 2C9 (P11712 whole entry): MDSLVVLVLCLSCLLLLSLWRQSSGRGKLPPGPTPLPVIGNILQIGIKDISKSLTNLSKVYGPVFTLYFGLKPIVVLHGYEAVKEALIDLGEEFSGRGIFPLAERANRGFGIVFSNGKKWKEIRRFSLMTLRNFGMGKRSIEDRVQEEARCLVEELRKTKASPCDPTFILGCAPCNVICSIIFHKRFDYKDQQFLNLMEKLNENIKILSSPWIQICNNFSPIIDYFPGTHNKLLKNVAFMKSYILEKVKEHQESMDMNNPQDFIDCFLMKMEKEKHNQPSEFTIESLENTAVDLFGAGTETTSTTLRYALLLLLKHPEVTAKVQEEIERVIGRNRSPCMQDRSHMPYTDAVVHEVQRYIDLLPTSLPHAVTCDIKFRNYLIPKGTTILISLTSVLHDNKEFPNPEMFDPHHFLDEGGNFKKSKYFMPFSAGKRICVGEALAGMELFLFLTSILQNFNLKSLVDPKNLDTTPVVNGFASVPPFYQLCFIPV
Chain of Cytochrome P450 2C19 (P33261 whole entry): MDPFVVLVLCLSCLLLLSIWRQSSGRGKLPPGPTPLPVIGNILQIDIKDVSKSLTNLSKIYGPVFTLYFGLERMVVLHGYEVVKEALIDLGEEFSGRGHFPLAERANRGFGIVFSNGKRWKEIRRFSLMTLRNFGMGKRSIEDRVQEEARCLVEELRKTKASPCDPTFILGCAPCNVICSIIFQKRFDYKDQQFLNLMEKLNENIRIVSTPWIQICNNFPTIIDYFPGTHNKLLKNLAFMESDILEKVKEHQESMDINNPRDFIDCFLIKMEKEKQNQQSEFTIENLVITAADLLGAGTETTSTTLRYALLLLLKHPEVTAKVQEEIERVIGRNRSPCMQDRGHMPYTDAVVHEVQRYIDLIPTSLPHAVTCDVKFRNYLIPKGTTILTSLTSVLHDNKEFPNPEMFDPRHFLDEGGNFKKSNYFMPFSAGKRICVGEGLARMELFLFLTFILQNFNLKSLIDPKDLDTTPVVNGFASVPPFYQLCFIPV
Chain of Somatostatin receptor type 2 (Rattus norvegicus, UniProt P30680) (P30680 whole entry): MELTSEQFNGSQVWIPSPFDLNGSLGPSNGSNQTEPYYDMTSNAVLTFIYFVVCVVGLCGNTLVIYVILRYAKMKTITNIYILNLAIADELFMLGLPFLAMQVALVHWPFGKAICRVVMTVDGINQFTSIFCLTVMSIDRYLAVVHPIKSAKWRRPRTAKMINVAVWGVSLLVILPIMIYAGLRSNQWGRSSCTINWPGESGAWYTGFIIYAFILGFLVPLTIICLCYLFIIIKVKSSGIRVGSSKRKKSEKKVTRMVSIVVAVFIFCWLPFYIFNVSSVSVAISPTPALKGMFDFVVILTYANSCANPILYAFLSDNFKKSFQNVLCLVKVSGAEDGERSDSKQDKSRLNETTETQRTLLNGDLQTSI

Q: For `Cc1cc(Cl)cc(N2C=Nc3cc(C)c(-c4cccc(-c5nnn[nH]5)c4)cc3C2C(=O)N(C)C[C@@H]2CCCN2)c1` (stereo not given in full), which EC50 ([1]; cho-k1, read-out: EC50) is on record?
A: > 1000 nM

Q: What about the EC50 ([1]; read-out: pEC50 (converted)) of the same compound?
A: > 1000 nM

Q: For `Cc1cc(Cl)cc(N2C=Nc3cc(C)c(-c4cc(F)cc(F)c4)cc3C2C(=O)N(C)C[C@@H]2CCCN2)c1` (stereo not given in full), which EC50 ([1]; read-out: EC50) is on record?
A: 3.7 nM

Q: Which results are given for `Cc1cc(Cl)cc(N2C=Nc3cc(C)c(-c4cccc(F)c4O)cc3C2C(=O)N(C)C[C@@H]2CCCN2)c1` (stereo not given in full)?
A: IC50 ([2]; read-out: pIC50 (converted)): 5010 nM; inhibition (INH) (Cytochrome P450 2D6): Not Active; EC50 [3]: > 1000 nM; inhibition (INH) (Cytochrome P450 2C19): Not Active; inhibition (INH) (Cytochrome P450 2C9): Not Active; EC50 [4]: 158 nM; inhibition (INH) (Cytochrome P450 3A4 [5]): Active; EC50 [6]: > 1000 nM

Q: For `Cc1cc(F)cc(N2C=Nc3cc(C)c(-c4cccc(O)c4)cc3C2C(=O)N(C)C[C@@H]2CCCN2)c1` (stereo not given in full), which EC50 ([1]; read-out: EC50) is on record?
A: 0.98 nM

Q: For `Cc1cc(Cl)cc(N2C=Nc3cc(C)c(-c4ccc5[nH]c(=O)[nH]c5c4)cc3C2C(=O)N(C)C[C@@H]2CCCN2)c1` (stereo not given in full), which EC50 ([1]; read-out: EC50) is on record?
A: 4.6 nM

Q: Which EC50 ([1]; read-out: EC50) does the source give for `CC[C@H](N)CN(C)C(=O)C1c2cc(-c3cccc(O)c3)c(C)cc2N=CN1c1cc(C)cc(C)c1` (stereo not given in full) here?
A: 4.2 nM

Q: Which IC50 ([2]; read-out: IC50) does the source give for `Cc1cc(Cl)cc(N2C=Nc3cc(C)c(-c4cc(O)cc(F)c4)cc3C2C(=O)N(C)C[C@@H]2CCCN2)c1` (stereo not given in full) here?
A: < 1000 nM

Q: And the IC50 ([2]; read-out: pIC50 (converted))?
A: 631 nM

Q: What about the EC50 [7] of the same compound?
A: 251 nM

Q: What about the EC50 [3] of the same compound?
A: > 1000 nM

Q: And the EC50 ([1]; read-out: EC50)?
A: 0.12 nM

Q: What about the EC50 [4] of the same compound?
A: 7.94 nM

Q: And the EC50 [8]?
A: 0.126 nM

Q: What about the EC50 [6] of the same compound?
A: > 1000 nM

Q: Which EC50 ([1]; read-out: EC50) does the source give for `COc1cc(F)cc(-c2cc3c(cc2C)N=CN(c2cc(C)cc(Cl)c2)C3C(=O)N(C)C[C@@H]2CCCN2)c1` (stereo not given in full) here?
A: 6.1 nM

Q: Which EC50 ([1]; read-out: EC50) does the source give for `Cc1cc(Cl)cc(N2C=Nc3cc(C)c(-c4cc(O)cc(C#N)c4)cc3C2C(=O)N(C)C[C@@H]2CCCN2)c1` (stereo not given in full) here?
A: 0.36 nM

Q: What does the source list for `Cc1cc(C)cc(N2C=Nc3cc(Cl)c(-c4cccc(O)c4)cc3C2C(=O)NC[C@H](C)N)c1` (stereo not given in full)?
A: EC50 ([1]; cho-k1, read-out: EC50): > 1000 nM; EC50 ([1]; read-out: pEC50 (converted)): > 1000 nM

Q: Which EC50 ([1]; read-out: EC50) does the source give for `Cc1cc(Cl)cc(N2C=Nc3cc(C)c(-c4ccccc4)cc3C2C(=O)N(C)C[C@@H]2CCCN2)c1` (stereo not given in full) here?
A: 56 nM

Q: With `Cc1cc(Cl)cc(N2C=Nc3cc(C)c(-c4cccc(C(F)(F)F)c4)cc3C2C(=O)N(C)C[C@@H]2CCCN2)c1` (stereo not given in full) as the compound, how does the EC50 ([1]; read-out: EC50) read?
A: 53 nM

Q: With `Cc1cc(Cl)cc(N2C=Nc3cc(C)c(-c4cccc(Cl)c4)cc3C2C(=O)N(C)C[C@@H]2CCCN2)c1` (stereo not given in full) as the compound, how does the EC50 ([1]; read-out: EC50) read?
A: 39 nM

Q: Which EC50 ([1]; read-out: EC50) does the source give for `Cc1cc(Cl)cc(N2C=Nc3cc(C)c(-c4cncc(C#N)c4)cc3C2C(=O)N(C)C[C@@H]2CCCN2)c1` (stereo not given in full) here?
A: 11 nM

Q: With `Cc1cc(Cl)cc(N2C=Nc3cc(C)c(-c4cccc(C#N)c4)cc3C2C(=O)N(C)C[C@@H]2CCCN2)c1` (stereo not given in full) as the compound, how does the EC50 ([1]; read-out: EC50) read?
A: 5.4 nM

Q: Which IC50 ([2]; read-out: pIC50 (converted)) does the source give for `Cc1cc(Cl)cc(N2C=Nc3cc(C)c(-c4cc(F)cc(C(N)=O)c4)cc3C2C(=O)N(C)C[C@@H]2CCCN2)c1` (stereo not given in full) here?
A: 2510 nM

Q: What about the EC50 [7] of the same compound?
A: > 1000 nM

Q: What about the EC50 [3] of the same compound?
A: > 1000 nM

Q: What about the EC50 ([1]; read-out: EC50) of the same compound?
A: 0.15 nM

Q: What about the EC50 [4] of the same compound?
A: 7.94 nM

Q: And the IC50 (Cytochrome P450 3A4 [9])?
A: 1000 nM

Q: What about the EC50 [8] of the same compound?
A: 0.158 nM

Q: And the EC50 [6]?
A: > 1000 nM

Q: With `Cc1cc(C)cc(N2C=Nc3cc(C)c(-c4cccc(O)c4)cc3C2C(=O)N(C)C[C@@H]2CCCN2)c1` (stereo not given in full) as the compound, how does the EC50 ([1]; read-out: EC50) read?
A: 1.3 nM

Q: For `Cc1cc(Cl)cc(N2C=Nc3cc(C)c(-c4cc(F)cc(C#N)c4)cc3C2C(=O)N(C)C[C@@H]2CCCN2)c1` (stereo not given in full), which EC50 [7] is on record?
A: 631 nM

Q: What about the EC50 ([1]; read-out: EC50) of the same compound?
A: 1.3 nM

Q: What about the EC50 [4] of the same compound?
A: 3.98 nM

Q: What about the EC50 [8] of the same compound?
A: 1.26 nM

Q: What about the EC50 [6] of the same compound?
A: > 1000 nM

Q: With `Cc1cc(Cl)cc(N2C=Nc3cc(C)c(-c4cc(F)ccc4O)cc3C2C(=O)N(C)C[C@@H]2CCCN2)c1` (stereo not given in full) as the compound, how does the EC50 ([1]; read-out: EC50) read?
A: 2.1 nM

Q: For `Cc1cc(Cl)cc(N2C=Nc3cc(C)c(-c4cccc(F)c4O)cc3C2C(=O)N(C)CC2CCCN2)c1` (stereo not given), which EC50 [10] is on record?
A: 0.54 nM

Q: And the bioavailability [11]?
A: < 5%

Q: With `Cc1cc(Cl)cc(N2C=Nc3cc(C)c(-c4cc(O)ccc4F)cc3C2C(=O)N(C)C[C@@H]2CCCN2)c1` (stereo not given in full) as the compound, how does the IC50 ([2]; read-out: IC50) read?
A: < 1000 nM

Q: And the IC50 ([2]; read-out: pIC50 (converted))?
A: 501 nM

Q: And the EC50 ([1]; read-out: EC50)?
A: 0.2 nM

Q: And the EC50 [8]?
A: 0.2 nM

Q: What about the EC50 [6] of the same compound?
A: > 1000 nM

Q: Which EC50 ([1]; read-out: EC50) does the source give for `Cc1cc(Cl)cc(N2C=Nc3cc(C)c(-c4cccc(O)c4)cc3C2C(=O)N(C)C[C@@H]2CCCN2)c1` (stereo not given in full) here?
A: 0.33 nM

Q: With `CC[C@H](N)CN(C)C(=O)C1c2cc(-c3cccc(O)c3)c(Cl)cc2N=CN1c1cc(C)cc(C)c1` (stereo not given in full) as the compound, how does the EC50 ([1]; read-out: EC50) read?
A: 11 nM

Q: Which EC50 ([1]; read-out: EC50) does the source give for `Cc1cc(Cl)cc(N2C=Nc3cc(C)c(-c4cnn(C)c4)cc3C2C(=O)N(C)C[C@@H]2CCCN2)c1` (stereo not given in full) here?
A: 170 nM

Q: For `Cc1cc(Cl)cc(N2C=Nc3cc(C)c(-c4cncc(O)c4)cc3C2C(=O)N(C)C[C@@H]2CCCN2)c1` (stereo not given in full), which EC50 ([1]; read-out: EC50) is on record?
A: 8.1 nM

Q: Which EC50 ([1]; cho-k1, read-out: EC50) does the source give for `Cc1cc(C)cc(N2C=Nc3ccc(-c4cccc(O)c4)cc3C2C(=O)N(C)C[C@H](C)N)c1` (stereo not given in full) here?
A: > 1000 nM

Q: And the EC50 ([1]; read-out: pEC50 (converted))?
A: > 1000 nM

Q: Which EC50 ([1]; read-out: EC50) does the source give for `Cc1cc(Cl)cc(N2C=Nc3cc(C)c(-c4cccc(NS(C)(=O)=O)c4)cc3C2C(=O)N(C)C[C@@H]2CCCN2)c1` (stereo not given in full) here?
A: 130 nM

From ChEMBL document CHEMBL4665730, “Discovery of nonpeptide 3,4-dihydroquinazoline-4-carboxamides as potent and selective sst2 agonists” (Bioorg Med Chem Lett, 2020)
